The values below come from publication PMC4704194, “Structural Basis of Metallo-β-Lactamase Inhibition by Captopril Stereoisomers” (Antimicrobial Agents and Chemotherapy, 2015).

Molecules are shown by their SMILES. Values after ≈ are worked out from the molar mass of the structure shown.

One may read the IC50 as the concentration that inhibits the measured activity by half. Read a high IC50 as a need for much substance. As a reminder, the MIC is the smallest concentration in the dilution series that meets the test's criterion for growth inhibition. By Ki is commonly meant a dissociation constant, usually derived from enzyme kinetics or from competition with a known ligand.

In one test the target is BcII (Bacillus cereus, UniProt P04190). The experiment in a line: MBL inhibition assay, BcII.
BcII, sequence (P04190 31-257): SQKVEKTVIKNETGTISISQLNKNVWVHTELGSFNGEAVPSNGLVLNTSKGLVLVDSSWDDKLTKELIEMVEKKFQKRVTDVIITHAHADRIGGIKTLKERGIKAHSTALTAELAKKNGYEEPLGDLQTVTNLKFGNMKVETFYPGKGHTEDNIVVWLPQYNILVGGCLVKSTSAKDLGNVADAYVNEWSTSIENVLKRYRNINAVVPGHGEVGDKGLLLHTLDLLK
Test [1] has as its target human angiotensin-converting enzyme 2 (hACE-2) (Homo sapiens, UniProt Q9BYF1). The experiment in a line: Inhibition assay, hACE-2. The test is classed as biochemical. To be noted: at 100 μM, standard assay conditions.
Method: (§2) Kinetic and inhibition assays with the bacterial MBLs, human angiotensin-converting enzyme 2 (hACE-2), and hydroxyacylglutathione hydrolase, human glyoxylase II (hHAGH), were performed as described previously ([7], [27]).
A further test has as its target IMP-1 (Serratia marcescens, UniProt P52699). The experiment in a line: MBL inhibition assay, IMP-1.
The target of test [2] is hydroxyacylglutathione hydrolase, human glyoxylase II (hHAGH) (Homo sapiens, UniProt Q16775). The experiment in a line: Inhibition assay, hHAGH. It is filed as biochemical. As to conditions: at 100 μM, standard assay conditions.
Method: as §2
The next test addresses T1, DCLRE1A (Homo sapiens, UniProt Q6PJP8).
T1 sequence (Q6PJP8 608-1040 limits assumed): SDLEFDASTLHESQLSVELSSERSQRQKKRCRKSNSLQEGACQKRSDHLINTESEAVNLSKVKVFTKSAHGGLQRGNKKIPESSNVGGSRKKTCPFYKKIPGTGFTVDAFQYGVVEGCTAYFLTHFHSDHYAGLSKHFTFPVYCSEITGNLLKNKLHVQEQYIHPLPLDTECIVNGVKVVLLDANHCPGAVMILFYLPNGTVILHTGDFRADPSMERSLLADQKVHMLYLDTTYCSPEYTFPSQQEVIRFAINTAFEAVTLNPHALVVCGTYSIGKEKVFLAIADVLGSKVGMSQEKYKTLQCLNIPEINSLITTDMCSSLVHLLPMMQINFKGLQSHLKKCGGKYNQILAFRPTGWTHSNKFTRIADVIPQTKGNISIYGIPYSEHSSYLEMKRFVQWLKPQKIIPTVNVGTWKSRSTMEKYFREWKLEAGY
In words: Nuclease assay, DCLRE1A. As to conditions: at 100 μM, standard assay conditions.

Another test has as its target T2, VIM-2 (Escherichia coli, UniProt Q5U7L7).
T2 construct: made in house; host or cells: Escherichia coli
In words: biochemical. As to conditions: means ± standard deviations, three or more experiments.

The next test addresses T3, DCLRE1B (Homo sapiens, UniProt Q9H816).
T3 sequence (Q9H816 1-335 limits assumed): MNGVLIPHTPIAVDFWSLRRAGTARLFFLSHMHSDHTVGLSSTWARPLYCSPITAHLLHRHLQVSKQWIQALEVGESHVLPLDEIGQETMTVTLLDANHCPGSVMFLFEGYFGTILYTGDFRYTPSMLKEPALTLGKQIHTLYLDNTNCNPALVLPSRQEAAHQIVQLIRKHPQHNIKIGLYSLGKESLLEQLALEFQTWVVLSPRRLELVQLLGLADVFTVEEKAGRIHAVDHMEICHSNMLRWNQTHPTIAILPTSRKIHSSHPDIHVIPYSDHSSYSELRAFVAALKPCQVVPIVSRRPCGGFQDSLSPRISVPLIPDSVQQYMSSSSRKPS
In words: Nuclease assay, DCLRE1B. To be noted: at 100 μM, standard assay conditions.

A further test concerns the target T4, NDM-1 (Klebsiella pneumoniae, UniProt C7C422).
T4 construct: made in house; host or cells: Escherichia coli
In words: biochemical.

The target in another test is SPM-1 (Pseudomonas aeruginosa, UniProt Q8G9Q0). The experiment in a line: MBL inhibition assay, SPM-1.
SPM-1, sequence (Q8G9Q0 entry or part of it): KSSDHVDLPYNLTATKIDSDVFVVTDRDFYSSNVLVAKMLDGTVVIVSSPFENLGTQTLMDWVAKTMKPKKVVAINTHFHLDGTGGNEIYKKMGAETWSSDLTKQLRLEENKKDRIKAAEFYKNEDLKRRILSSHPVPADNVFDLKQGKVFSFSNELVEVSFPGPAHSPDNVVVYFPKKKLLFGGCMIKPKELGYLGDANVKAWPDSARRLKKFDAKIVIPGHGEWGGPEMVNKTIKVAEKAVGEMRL
In test [3] the test system is S. marcescens B13 (IMP-4). The experiment in a line: MIC, broth microdilution. It is filed as cell-based, Serratia marcescens. To be noted: captopril where added at 8 mg/liter. The text has this:
(§1) The bacteria used were nonclonal international isolates whose mechanisms of carbapenem resistance have been defined genetically by sequencing. E. coli ATCC 25922 was used as a negative control. MBL genes were obtained by PCR using standard procedures and were inserted into a pK18 vector which was used to transform E. coli J53 ([34]). Transconjugants were obtained with MBL genes carried on native wild-type plasmids conjugated into J53 ([35]). Both transformants and transconjugants were confirmed by DNA sequencing and verified for MBL production by using MTS MBL strips (Liofilchem, Roseto, Italy). Additionally, 5 Escherichia coli (with NDM-1), 10 Klebsiella pneumoniae (5 with NDM-1, 3 with VIM-4, and 2 with IMP-4), 1 Serratia marcescens (with IMP-4), and 2 Pseudomonas aeruginosa (with VIM-2 and AIM-1) isolates and E. coli ATCC 25922 were used in the test panel. MICs were determined using the broth microdilution method according to CLSI guidelines. Strains were cultured and tested in cation-adjusted Mueller-Hinton agar and broth (Becton Dickinson).
(In general: Dilution methods test growth across graded concentrations, often in twofold steps.)

Test [4] relates to E. coli J53 + VIM-2 transconjugant. The experiment in a line: MIC, broth microdilution. It is filed as cell-based, Escherichia coli. As to conditions: captopril where added at 8 mg/liter.
From the text: as §1

Test [5] relates to E. coli J53 + IMP-1 clone. The experiment in a line: MIC, broth microdilution. As to conditions: captopril where added at 8 mg/liter. It is filed as cell-based, Escherichia coli.
From the text: as §1

The subject of the next test is E. coli IR15 (NDM-1). In words: MIC, broth microdilution. The test is classed as cell-based, Escherichia coli. To be noted: captopril where added at 8 mg/liter.
From the text: as §1

In the next test the test system is E. coli IR24 (NDM-1). The experiment in a line: MIC, broth microdilution. The test is classed as cell-based, Escherichia coli. As to conditions: captopril where added at 8 mg/liter.
From the text: as §1

In test [6] the test system is E. coli J53 + VIM-2 clone. In words: MIC, broth microdilution. It is filed as cell-based, Escherichia coli. To be noted: captopril where added at 8 mg/liter.
From the text: as §1

The subject of test [7] is E. coli J53 + NDM-1 clone. In words: MIC, broth microdilution. It is filed as cell-based, Escherichia coli. As to conditions: captopril where added at 8 mg/liter.
From the text: as §1

The next test has as its system E. coli IR10 (NDM-1). The experiment in a line: MIC, broth microdilution. The test is classed as cell-based, Escherichia coli. To be noted: captopril where added at 8 mg/liter.
From the text: as §1

In another test the test system is E. coli 25922. In words: MIC, broth microdilution. The test is classed as cell-based, Escherichia coli. As to conditions: E. coli 25922 (negative control); captopril where added at 8 mg/liter.
From the text: as §1, with “E. coli ATCC 25922 was used as a negative control.” left out, “Additionally, 5 Escherichia coli (with NDM-1), 10 Klebsiella pneumoniae (5 with NDM-1, 3 with VIM-4, and 2 with IMP-4), 1 Serratia marcescens (with IMP-4), and 2 Pseudomonas aeruginosa (with VIM-2 and AIM-1) isolates and E. coli ATCC 25922 were used in the test panel.” left out

Test [8] deals with K. pneumoniae B12 (IMP-4). The experiment in a line: MIC, broth microdilution. The test is classed as cell-based, Klebsiella pneumoniae. To be noted: captopril where added at 8 mg/liter.
From the text: as §1

Test [9] relates to K. pneumoniae IR8 (NDM-1). The experiment in a line: MIC, broth microdilution. The test is classed as cell-based, Klebsiella pneumoniae. As to conditions: captopril where added at 8 mg/liter.
From the text: as §1

Test [10] deals with K. pneumoniae N16 (NDM-1). The experiment in a line: MIC, broth microdilution. It is filed as cell-based, Klebsiella pneumoniae. To be noted: captopril where added at 8 mg/liter.
From the text: as §1

The subject of test [11] is K. pneumoniae B19 (IMP-4). The experiment in a line: MIC, broth microdilution. The test is classed as cell-based, Klebsiella pneumoniae. As to conditions: captopril where added at 8 mg/liter.
From the text: as §1

Test [12] has as its system K. pneumoniae A34 (VIM-4). In words: MIC, broth microdilution. It is filed as cell-based, Klebsiella pneumoniae. To be noted: captopril where added at 8 mg/liter.
From the text: as §1

Test [13] relates to K. pneumoniae HR8 (NDM-1). In words: MIC, broth microdilution. The test is classed as cell-based, Klebsiella pneumoniae. As to conditions: captopril where added at 8 mg/liter.
From the text: as §1

Test [14] has as its system K. pneumoniae A33 (VIM-4). In words: MIC, broth microdilution. The test is classed as cell-based, Klebsiella pneumoniae. To be noted: captopril where added at 8 mg/liter.
From the text: as §1

For test [15], the system named is K. pneumoniae IR19 (NDM-1). The experiment in a line: MIC, broth microdilution. It is filed as cell-based, Klebsiella pneumoniae. As to conditions: captopril where added at 8 mg/liter.
From the text: as §1

Test [16] deals with K. pneumoniae A35 (VIM-4). In words: MIC, broth microdilution. To be noted: captopril where added at 8 mg/liter. The test is classed as cell-based, Klebsiella pneumoniae.
From the text: as §1

Another test has as its target FEZ-1. On the set-up: method as in PMID 12507470. As to conditions: B3 MBL ref 23; cited from earlier work.
Another test deals with VIM-4 (Pseudomonas aeruginosa, UniProt Q8KRJ3). The experiment in a line: MBL inhibition assay, VIM-4. It is filed as biochemical.
A further test has as its target CphA. As to conditions: B2 MBL ref 18; cited from earlier work.
Test [17] has as its system E. coli J53 + NDM-1 transconjugant. In words: MIC, broth microdilution. The test is classed as cell-based, Escherichia coli. To be noted: captopril where added at 8 mg/liter.
From the text: as §1, with “E. coli ATCC 25922 was used as a negative control.” left out, “Additionally, 5 Escherichia coli (with NDM-1), 10 Klebsiella pneumoniae (5 with NDM-1, 3 with VIM-4, and 2 with IMP-4), 1 Serratia marcescens (with IMP-4), and 2 Pseudomonas aeruginosa (with VIM-2 and AIM-1) isolates and E. coli ATCC 25922 were used in the test panel.” left out

human angiotensin-converting enzyme 2 (hACE-2), sequence (Q9BYF1 18-805): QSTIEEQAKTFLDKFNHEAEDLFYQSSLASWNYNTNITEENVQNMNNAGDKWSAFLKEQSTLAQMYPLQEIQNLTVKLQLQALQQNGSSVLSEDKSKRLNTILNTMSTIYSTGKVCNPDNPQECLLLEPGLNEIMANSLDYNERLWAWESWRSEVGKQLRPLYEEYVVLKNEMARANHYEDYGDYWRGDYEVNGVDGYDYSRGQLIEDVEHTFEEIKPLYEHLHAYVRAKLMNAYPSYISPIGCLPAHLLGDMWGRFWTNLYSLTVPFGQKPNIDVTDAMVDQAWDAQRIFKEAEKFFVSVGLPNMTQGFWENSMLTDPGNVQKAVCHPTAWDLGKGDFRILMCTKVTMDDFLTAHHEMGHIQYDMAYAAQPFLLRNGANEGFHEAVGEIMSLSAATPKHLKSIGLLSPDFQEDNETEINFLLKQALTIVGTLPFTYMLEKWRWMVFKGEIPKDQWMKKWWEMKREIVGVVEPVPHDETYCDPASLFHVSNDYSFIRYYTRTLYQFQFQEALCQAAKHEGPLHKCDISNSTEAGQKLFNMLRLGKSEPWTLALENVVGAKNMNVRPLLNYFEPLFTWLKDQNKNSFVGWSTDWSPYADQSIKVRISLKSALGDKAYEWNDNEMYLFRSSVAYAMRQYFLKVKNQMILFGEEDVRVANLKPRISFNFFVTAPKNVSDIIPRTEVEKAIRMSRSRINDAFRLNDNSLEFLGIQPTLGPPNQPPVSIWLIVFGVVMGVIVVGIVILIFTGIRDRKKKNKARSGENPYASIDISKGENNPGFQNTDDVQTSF
IMP-1, sequence (P52699 19-246 limits assumed): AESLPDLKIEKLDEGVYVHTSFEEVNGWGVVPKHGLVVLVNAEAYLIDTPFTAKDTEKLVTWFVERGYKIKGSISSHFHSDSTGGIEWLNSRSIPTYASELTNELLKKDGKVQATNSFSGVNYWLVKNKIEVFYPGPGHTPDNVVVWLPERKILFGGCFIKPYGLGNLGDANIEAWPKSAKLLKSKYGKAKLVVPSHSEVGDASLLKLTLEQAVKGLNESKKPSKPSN
T4 sequence (C7C422 29-270 limits assumed): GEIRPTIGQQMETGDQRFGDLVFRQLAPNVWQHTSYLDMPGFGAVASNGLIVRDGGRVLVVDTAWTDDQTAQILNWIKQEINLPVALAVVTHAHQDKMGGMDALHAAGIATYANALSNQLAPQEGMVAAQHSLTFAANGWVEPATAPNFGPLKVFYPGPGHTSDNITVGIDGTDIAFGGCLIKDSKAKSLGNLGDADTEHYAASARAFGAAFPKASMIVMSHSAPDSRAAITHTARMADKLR
Method for BcII: (§3) Recombinant forms of NDM-1, VIM-2, VIM-4, SPM-1, IMP-1, and BcII MBLs were produced in Escherichia coli as described previously ([27], [28]).
as §2
Method for DCLRE1A: (§4) Nuclease assays with DCLRE1A and DCLRE1B (DNA cross-link repair enzymes 1A and 1B) ([33]) were performed according to a previously described method ([33]), employing a 21-nucleotide DNA oligonucleotide with a fluorescein label at its 3′ end. In brief, exonuclease activity was measured using ΔN-DCLRE1A (3.5 ng; 8 nM) or ΔC-DCLRE1B (1.5 ng; 4 nM) mixed with 1 pmol (1 μM) of 3′-fluorescein-labeled DNA substrate in 10 μl of 20 mM HEPES, pH 7.9, 50 mM KCl, 10 mM MgCl2, 0.5 mM dithiothreitol (DTT), 0.05% Triton-X, 0.1 mg/ml bovine serum albumin (BSA), and 5% glycerol.
(§5) [SNM1A] = [SNM1B] = 0.8 nM; [21nt fluor-ssDNA] = 1 µM, assay time = 20 mins
Method for DCLRE1B: as §4, §5
Method for SPM-1: as §3, §2

For the compound `O=C(O)C1CCCN1C(=O)c1ccccc1S` [D-MBP, 1-(2-mercaptobenzoyl)pyrrolidine-2-carboxylic acid], the IC50 on BcII, against IMP-1, on VIM-2, against NDM-1 and against SPM-1 was over 500 µM each time. Further, the “inhibition of hACE-2” value in test [1] is listed as “no inhibition”. The “inhibition of hHAGH” value in test [2] is “no inhibition”. The “inhibition of DCLRE1A” value against DCLRE1A is “no inhibition”. For the same compound, the “inhibition of DCLRE1B” value on DCLRE1B is given as “no inhibition”.
In the case of `C[C@@H](O)[C@H]1C(=O)N2C(C(=O)O)=C(S[C@@H]3CN[C@H](C(=O)N(C)C)C3)[C@H](C)[C@H]12` [MEM, meropenem], the MIC in [3] worked out at 4 µg/mL (≈ 10.4 µM); in [4], 2 µg/mL (≈ 5.22 µM); in test [5] it was 1 µg/mL (≈ 2.61 µM); with E. coli IR15 (NDM-1), 8 µg/mL (≈ 20.9 µM); in the test on E. coli IR24 (NDM-1), 512 µg/mL (≈ 1340 µM); in [6], 8 µg/mL (≈ 20.9 µM). Besides, the minimum inhibitory concentration (MIC) in [7] is 64 µg/mL (≈ 167 µM); in the test with E. coli IR10 (NDM-1) it was 64 µg/mL (≈ 167 µM); against E. coli 25922 it was under 0.125 µg/mL; in test [8], 8 µg/mL (≈ 20.9 µM); in test [9] it was 16 µg/mL (≈ 41.7 µM); in [10], 32 µg/mL (≈ 83.4 µM). For the same compound, the MIC in test [11] was 32 µg/mL (≈ 83.4 µM); in [12], 8 µg/mL (≈ 20.9 µM); in test [13] it was 64 µg/mL (≈ 167 µM); in [14], 8 µg/mL (≈ 20.9 µM); in [15] it was 8 µg/mL (≈ 20.9 µM); in test [16] it was 16 µg/mL (≈ 41.7 µM).
`C[C@@H](CS)C(=O)N1CCC[C@H]1C(=O)O` [D-Captopril, (2S)-1-[(2R)-2-methyl-3-sulfanylpropanoyl] pyrrolidine-2-carboxylic acid]: the Ki on FEZ-1 is 400 µM; at CphA it was 72 µM. In test [1], the “inhibition of hACE-2” value is recorded as “no inhibition”. Besides, at VIM-4, it took 1.7 ± 0.4 µM to reach half-maximal inhibition (IC50). Moreover, in test [2], the “inhibition of hHAGH” value is reported as “no inhibition”. Besides, the “inhibition of DCLRE1A” value against DCLRE1A is “no inhibition”. The “inhibition of DCLRE1B” value against DCLRE1B is given as “no inhibition”.
Take `CC(C)(O/N=C(\C(=O)N[C@@H]1C(=O)N2C(C(=O)[O-])=C(C[n+]3ccccc3)CS[C@H]12)c1csc(N)n1)C(=O)O` [CFZ, ceftazidime]: the minimal inhibitory concentration (MIC) in test [4] was 32 µg/mL (≈ 58.5 µM); in test [5], 128 µg/mL (≈ 234 µM); in test [6], 32 µg/mL (≈ 58.5 µM); in [7], 512 µg/mL (≈ 937 µM); in test [17] it was 512 µg/mL (≈ 937 µM).
Consider `C[C@H](CS)C(=O)N1CCC[C@H]1C(=O)O` [L-Captopril, (2S)-1-[(2S)-2-Methyl-3-sulfanylpropanoyl] pyrrolidine-2-carboxylic acid], for which, in [1], the “inhibition of hACE-2” value was “no inhibition”. The compound also registered an IC50 against VIM-4 of 3.9 ± 0.5 µM. Moreover, the “inhibition of hHAGH” value in test [2] was “no inhibition”. In addition, the “inhibition of DCLRE1A” value at DCLRE1A was “no inhibition”. On DCLRE1B, the “inhibition of DCLRE1B” value was “no inhibition”.
